In patent US6355799B1, “Substituted benzene compounds, process for their preparation, and herbicidal and defoliant compositions containing them” (ISK Americas Incorporated, priority 1997, dated 2002):

Experiments:
Type in all cases: in vivo
[1] = test system: redroot pigweed (Amaranthus retroflexus, AMARE); experiment: Pre-emerge test, greenhouse herbicide activity screening; conditions: pre-emerge, rated 14 days after application, 0 = no damage, 100 = complete death
Procedure, shortened: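 Rating: 0–100 visual injury, 14 DAA. Application: acetone, 187 l/ha, 15–1000 g ai/ha, flat-fan track sprayer with nozzle 40–45 cm above soil or canopy. Post-emerge runs used 0.25% v/v surfactant on 2–3 leaf plants.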

[2] = test system: barnyardgrass (Echinochloa crus-galli, ECHCG); experiment: as above; conditions: pre-emerge, rated 14 days after application, 0 = no damage, 100 = complete death
Procedure, shortened: (§1)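 Fourteen days after spraying, crop and weed injury was graded visually from 0, no effect, to 100, every plant dead. Test substances were dissolved in acetone and applied at 15–1000 g ai/ha with a flat-fan nozzle. Application was either pre-emergence, one day after sowing, or post-emergence at the 2–3 leaf stage.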

[3] = test system: green foxtail (Setaria viridis, SETVI); experiment: as above; conditions: pre-emerge, rated 14 days after application, 0 = no damage, 100 = complete death
Procedure, shortened: as §1

[4] = test system: ivyleaf morningglory (Ipomoea hederacea, IPOHE); experiment: as above; conditions: pre-emerge, rated 14 days after application, 0 = no damage, 100 = complete death
Procedure, shortened: as §1

[5] = test system: johnsongrass (Sorghum halepense, SORHA); experiment: as above; conditions: pre-emerge, rated 14 days after application, 0 = no damage, 100 = complete death
Procedure, shortened: as §1

[6] = test system: lambsquarters (Chenopodium album, CHEAL); experiment: as above; conditions: pre-emerge, rated 14 days after application, 0 = no damage, 100 = complete death
Procedure, shortened: as §1

[7] = test system: large crabgrass (Digitaria sanguinalis, DIGSA); experiment: as above; conditions: pre-emerge, rated 14 days after application, 0 = no damage, 100 = complete death
Procedure, shortened: as §1

[8] = test system: sicklepod (Cassia obtusifolia, CASOB); experiment: as above; conditions: pre-emerge, rated 14 days after application, 0 = no damage, 100 = complete death
Procedure, shortened: as §1

[9] = test system: velvetleaf (Abutilon theophrasti, ABUTH); experiment: as above; conditions: pre-emerge, rated 14 days after application, 0 = no damage, 100 = complete death
Procedure, shortened: as §1

[10] = test system: field corn (Zea mays L., var. Dekalb 535, CORN); experiment: Pre-emerge test, crop safety; conditions: pre-emerge, rated 14 days after application, 0 = no damage, 100 = complete death
Procedure, shortened: (§2)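 Compounds in acetone were track-sprayed at 187 l/ha, 15–1000 g ai/ha, onto sandy loam pots. Pre-emerge seeds were sown one day before spraying, with surface watering afterwards. Post-emerge plants were at the 2–3 leaf stage and sprayed with 0.25% v/v non-ionic surfactant. Injury was rated 0–100 at 14 days.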

[11] = test system: upland rice (Oryza sp., var. Tebonnet, RICE); experiment: Pre-emerge test, crop safety; conditions: pre-emerge, rated 14 days after application, 0 = no damage, 100 = complete death
Procedure, shortened: as §2

[12] = test system: barnyardgrass (Echinochloa crus-galli, ECHCG); experiment: Post-emerge test, greenhouse herbicide activity screening; conditions: phytotoxicity rating 0-100 (0 no damage, 100 complete death), 14 days after application
Procedure, shortened: (§3)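 Sandy loam pots; pre-emerge: sown 1 d pre-spray, surface-watered after, then bottom-watered. Post-emerge: sown 8–21 d before, 2–3 leaf stage, + 0.25% v/v NIS, bottom-watered. Acetone, 187 l/ha track spray, 15–1000 g ai/ha. 0–100 injury score, day 14.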

[13] = test system: green foxtail (Setaria viridis, SETVI); experiment: as above; conditions: phytotoxicity rating 0-100 (0 no damage, 100 complete death), 14 days after application
Procedure, shortened: as §3

[14] = test system: ivyleaf morningglory (Ipomoea hederacea, IPOHE); experiment: as above; conditions: phytotoxicity rating 0-100 (0 no damage, 100 complete death), 14 days after application
Procedure, shortened: as §3

[15] = test system: johnsongrass (Sorghum halepense, SORHA); experiment: as above; conditions: phytotoxicity rating 0-100 (0 no damage, 100 complete death), 14 days after application
Procedure, shortened: as §3

[16] = test system: lambsquarters (Chenopodium album, CHEAL); experiment: as above; conditions: phytotoxicity rating 0-100 (0 no damage, 100 complete death), 14 days after application
Procedure, shortened: as §3

[17] = test system: large crabgrass (Digitaria sanguinalis, DIGSA); experiment: as above; conditions: phytotoxicity rating 0-100 (0 no damage, 100 complete death), 14 days after application
Procedure, shortened: as §3

[18] = test system: redroot pigweed (Amaranthus retroflexus, AMARE); experiment: as above; conditions: phytotoxicity rating 0-100 (0 no damage, 100 complete death), 14 days after application
Procedure, shortened: as §3

[19] = test system: sicklepod (Cassia obtusifolia, CASOB); experiment: as above; conditions: phytotoxicity rating 0-100 (0 no damage, 100 complete death), 14 days after application
Procedure, shortened: as §3

[20] = test system: velvetleaf (Abutilon theophrasti, ABUTH); experiment: as above; conditions: phytotoxicity rating 0-100 (0 no damage, 100 complete death), 14 days after application
Procedure, shortened: as §3

[21] = test system: field corn (Zea mays L., var. Dekalb 535, CORN); experiment: Post-emerge test, crop safety; conditions: phytotoxicity rating 0-100 (0 no damage, 100 complete death), 14 days after application
Procedure, shortened: as §1

[22] = test system: upland rice (Oryza sp., var. Tebonnet, RICE); experiment: Post-emerge test, crop safety; conditions: phytotoxicity rating 0-100 (0 no damage, 100 complete death), 14 days after application
Procedure, shortened: as §1

SMILES: COC(=O)C=CCOc1c(Cl)cc(F)c(-n2c(=O)cc(C(F)(F)F)n(C)c2=O)c1N [Compound 1-20]
- Pre-emerge Herbicidal Activity AMARE (phytotoxicity rating, scale 0-100) ([1]; 63 g ai/ha): 100
- Pre-emerge Herbicidal Activity AMARE (phytotoxicity rating, scale 0-100) ([1]; 250 g ai/ha): 100
- Pre-emerge Herbicidal Activity ECHCG (phytotoxicity rating, scale 0-100) ([2]; 63 g ai/ha): 50
- Pre-emerge Herbicidal Activity ECHCG (phytotoxicity rating, scale 0-100) ([2]; 250 g ai/ha): 100
- Pre-emerge Herbicidal Activity SETVI (phytotoxicity rating, scale 0-100) ([3]; 63 g ai/ha): 80
- Pre-emerge Herbicidal Activity SETVI (phytotoxicity rating, scale 0-100) ([3]; 250 g ai/ha): 100
- Pre-emerge Herbicidal Activity IPOHE (phytotoxicity rating, scale 0-100) ([4]; 63 g ai/ha): 40
- Pre-emerge Herbicidal Activity IPOHE (phytotoxicity rating, scale 0-100) ([4]; 250 g ai/ha): 100
- Pre-emerge Herbicidal Activity SORHA (phytotoxicity rating, scale 0-100) ([5]; 63 g ai/ha): 30
- Pre-emerge Herbicidal Activity SORHA (phytotoxicity rating, scale 0-100) ([5]; 250 g ai/ha): 70
- Pre-emerge Herbicidal Activity CHEAL (phytotoxicity rating, scale 0-100) ([6]; 63 g ai/ha): 100
- Pre-emerge Herbicidal Activity CHEAL (phytotoxicity rating, scale 0-100) ([6]; 250 g ai/ha): 100
- Pre-emerge Herbicidal Activity DIGSA (phytotoxicity rating, scale 0-100) ([7]; 63 g ai/ha): 50
- Pre-emerge Herbicidal Activity DIGSA (phytotoxicity rating, scale 0-100) ([7]; 250 g ai/ha): 90
- Pre-emerge Herbicidal Activity CASOB (phytotoxicity rating, scale 0-100) ([8]; 63 g ai/ha): 100
- Pre-emerge Herbicidal Activity CASOB (phytotoxicity rating, scale 0-100) ([8]; 250 g ai/ha): 100
- Pre-emerge Herbicidal Activity ABUTH (phytotoxicity rating, scale 0-100) ([9]; 63 g ai/ha): 100
- Pre-emerge Herbicidal Activity ABUTH (phytotoxicity rating, scale 0-100) ([9]; 250 g ai/ha): 100
- Pre-emerge crop damage CORN (phytotoxicity rating, scale 0-100) ([10]; 63 g ai/ha): 15
- Pre-emerge crop damage CORN (phytotoxicity rating, scale 0-100) ([10]; 250 g ai/ha): 65
- Pre-emerge crop damage RICE (phytotoxicity rating, scale 0-100) ([11]; 63 g ai/ha): 60
- Pre-emerge crop damage RICE (phytotoxicity rating, scale 0-100) ([11]; 250 g ai/ha): 70
- Post-emerge Herbicidal Activity ECHCG ([12]; 63 g ai/ha): 30
- Post-emerge Herbicidal Activity ECHCG ([12]; 250 g ai/ha): 80
- Post-emerge Herbicidal Activity SETVI ([13]; 63 g ai/ha): 0
- Post-emerge Herbicidal Activity SETVI ([13]; 250 g ai/ha): 60
- Post-emerge Herbicidal Activity IPOHE ([14]; 63 g ai/ha): 100
- Post-emerge Herbicidal Activity IPOHE ([14]; 250 g ai/ha): 100
- Post-emerge Herbicidal Activity SORHA ([15]; 63 g ai/ha): 10
- Post-emerge Herbicidal Activity SORHA ([15]; 250 g ai/ha): 70
- Post-emerge Herbicidal Activity CHEAL ([16]; 63 g ai/ha): 90
- Post-emerge Herbicidal Activity CHEAL ([16]; 250 g ai/ha): 100
- Post-emerge Herbicidal Activity DIGSA ([17]; 63 g ai/ha): 10
- Post-emerge Herbicidal Activity DIGSA ([17]; 250 g ai/ha): 20
- Post-emerge Herbicidal Activity AMARE ([18]; 63 g ai/ha): 90
- Post-emerge Herbicidal Activity AMARE ([18]; 250 g ai/ha): 100
- Post-emerge Herbicidal Activity CASOB ([19]; 63 g ai/ha): 0
- Post-emerge Herbicidal Activity CASOB ([19]; 250 g ai/ha): 50
- Post-emerge Herbicidal Activity ABUTH ([20]; 63 g ai/ha): 100
- Post-emerge Herbicidal Activity ABUTH ([20]; 250 g ai/ha): 100
- Post-emerge Herbicidal Activity CORN (crop damage) ([21]; 63 g ai/ha): 10
- Post-emerge Herbicidal Activity CORN (crop damage) ([21]; 250 g ai/ha): 40
- Post-emerge Herbicidal Activity RICE (crop damage) ([22]; 63 g ai/ha): 20
- Post-emerge Herbicidal Activity RICE (crop damage) ([22]; 250 g ai/ha): 50
